Measured values from patent US20100061994A1, “MEDICAL USES OF 39-DESMETHOXYRAPAMYCIN AND ANALOGUES THEREOF” (priority 2005, published 2010).
Read-outs that look alike come from different tables or passages of the source.

What was measured:
[1] = tested on: panel of 12 human tumour cell lines; assay: Monolayer proliferation assay Protocol 1, mean across the cell lines tested; assay type: cell-based
Procedure: (§1) In vitro evaluation of compounds for anticancer activity in a panel of 12 human tumour cell lines in a monolayer proliferation assay were carried out at the Oncotest Testing Facility, Institute for Experimental Oncology, Oncotest GmbH, Freiburg.
(§2) A modified propidium iodide assay was used to assess the effects of the test compound(s) on the growth of twelve human tumor cell lines (Dengler et al, 1995).
(§3) Briefly, cells were harvested from exponential phase cultures by trypsinization, counted and plated in 96 well flat-bottomed microtitre plates at a cell density dependent on the cell line (5-10.000 viable cells/well). […] Each concentration was plated in triplicate. 39-Desmethoxyrapamycin was applied in two concentrations (0.001 mM and 0.01 mM).
(§4) Growth inhibition was expressed as treated/control×100 (% TIC). For active compounds, IC50 & IC70 values were estimated by plotting compound concentration versus cell viability.
(§5) In vitro evaluation of 39-desmethoxyrapamycin for anticancer activity in a panel of 12 human tumour cell lines in a monolayer proliferation assay was carried out as described as Protocol 1 in the general methods above using a modified propidium iodide assay.

[2] = Human Liver Microsomal (HLM) stability assay; assay type: in vitro ADME
Procedure: Liver homogenates provide a measure of a compounds inherent vulnerability to Phase I (oxidative) enzymes, including CYP450s (e.g. CYP2C8, CYP2D6, CYP1A, CYP3A4, CYP2E1), esterases, amidases and flavin monooxygenases (FMOs).
The half life (T½) of test compounds was determined, on exposure to Human Liver Microsomes, by monitoring their disappearance over time by LC-MS. Compounds at 0.001 mM were incubated at for 40 min at 37° C., 0.1 M Tris-HCl, pH 7.4 with human microsomal sub-cellular fraction of liver at 0.25 mg/mL protein and saturating levels of NADPH as co-factor. At timed intervals, acetonitrile was added to test samples to precipitate protein and stop metabolism. Samples were centrifuged and analysed for parent compound using analytical Method A (see Materials & Methods).

LNCAP = assay: Monolayer proliferation assay Protocol 1 (propidium iodide); assay type: cell-based, human; conditions: 4 days, mean of duplicate experiments
Procedure: as §1, §2, §3, §4, §5

251L = assay: as above; assay type: cell-based, human; conditions: 4 days, mean of duplicate experiments
Procedure: as §1, §2, §3, §4, §5

394NL = assay: as above; assay type: cell-based, human; conditions: 4 days, mean of duplicate experiments
Procedure: as §1, §2, §3, §4, §5

MCF7 = assay: as above; assay type: cell-based, human; conditions: 4 days, mean of duplicate experiments
Procedure: as §1, §2, §3, §4, §5

MDA468 = assay: as above; assay type: cell-based, human; conditions: 4 days, mean of duplicate experiments
Procedure: as §1, §2, §3, §4, §5

H460 = assay: as above; assay type: cell-based, human; conditions: 4 days, mean of duplicate experiments
Procedure: as §1, §2, §3, §4, §5

SF295 = assay: Monolayer assay Protocol 2 (SRB), high MDR-expressing cell lines; assay type: cell-based, human; conditions: CNS SF295, high MDR-expressing, 48 h
Procedure: (§6) The human tumor cell lines of the National Cancer Institute (NCI) cancer screening panel were grown in RPMI 1640 medium containing 5% fetal bovine serum and 2 mM L-glutamine (Boyd and Paull, 1995). Cells were inoculated into 96 well microtiter plates in 0.1 mL at plating densities ranging from 5,000 to 40,000 cells/well depending on the doubling time of individual cell lines. After cell inoculation, the microtiter plates were incubated at 37° C., 5% CO2, 95% air and 100% relative humidity for 24 h prior to addition of experimental drugs.
(§7) After 24 h, two plates of each cell line were fixed in situ with trichloroacetic acid (TCA), to represent a measurement of the cell population for each cell line at the time of drug addition (Tz). Experimental drugs were solubilized in dimethyl sulfoxide at 400-fold the desired final maximum test concentration and stored frozen prior to use. At the time of drug addition, an aliquot of frozen concentrate was thawed and diluted to twice the desired final maximum test concentration with complete medium containing 0.05 mg/mL gentamicin. Additional four, 10-fold or ½ log serial dilutions were made to provide a total of five drug concentrations plus control. Aliquots of 0.1 mL of these different drug dilutions were added to the appropriate microtiter wells already containing 0.1 mL of medium, resulting in the required final drug concentrations.
(§8) Following drug addition, the plates were incubated for an additional 48 h at 37° C., 5% CO2, 95% air, and 100% relative humidity. For adherent cells, the assay was terminated by the addition of cold TCA. Cells were fixed in situ by the gentle addition of 0.05 mL of cold 50% (w/v) TCA (final concentration, 10% TCA) and incubated for 60 minutes at 4° C. The supernatant was discarded, and the plates were washed five times with tap water and air dried. Sulforhodamine B (SRB) solution (0.1 mL) at 0.4% (w/v) in 1% acetic acid was added to each well, and plates were incubated for 10 minutes at room temperature. After staining, unbound dye was removed by washing five times with 1% acetic acid and the plates were air dried. Bound stain was subsequently solubilized with 10 mM trizma base, and the absorbance was read on an automated plate reader at a wavelength of 515 nm. […] Using the seven absorbance measurements [time zero, (Tz), control growth, (C), and test growth in the presence of drug at the five concentration levels (Ti)], the percentage growth was calculated at each of the drug concentrations levels. Percentage growth inhibition was calculated as:
(§9) Three dose response parameters were calculated for each experimental agent. […] The drug concentration resulting in total growth inhibition (TGI) was calculated from Ti=Tz. […]

A498 = assay: as above; assay type: cell-based, human; conditions: Renal A498, high MDR-expressing, 48 h
Procedure: as §6, §7, §8, §9

Row | SMILES | Mean IC70 [1] | Test/Control (%) at drug concentration (LNCAP; 1 μM) | Test/Control (%) at drug concentration (LNCAP; 10 μM) | Test/Control (%) at drug concentration (251L; 1 μM) | Test/Control (%) at drug concentration (251L; 10 μM) | Test/Control (%) at drug concentration (394NL; 1 μM) | Test/Control (%) at drug concentration (394NL; 10 μM) | Test/Control (%) at drug concentration (MCF7; MCF7, 1 μM) | Test/Control (%) at drug concentration (MCF7; MCF7, 10 μM) | Test/Control (%) at drug concentration (MDA468; MDA468, 1 μM) | Test/Control (%) at drug concentration (MDA468; MDA468, 10 μM) | Test/Control (%) at drug concentration (H460; H460, 1 μM) | also measured
1 | COC1CC2CCC(C)C(O)(O2)C(=O)C(=O)N2CCCCC2C(=O)OC(C(C)CC2CCC(O)CC2)CC(=O)C(C)C=C(C)C(O)C(OC)C(=O)C(C)CC(C)C=CC=CC=C1C (stereo not shown) [39-desmethoxyrapamycin] | 6.95 µM | 74.5% | 28.5% | 86% | 32.5% | 48% | 40.5% | 92.5% | 18.5% | 65% | 13.5% | 71% | IC50 [1]: 3.25 µM; metabolic stability compared to rapamycin [2]: increased metabolic stability; HLM stability: T½ min ([2]; 0.001 mM, 0.25 mg/mL protein, NADPH, 37° C.): 59 min; Test/Control (%) at drug concentration (H460; H460, 10 μM): 55.5%; Log GI50 (SF295): −5.85; Log GI50 (A498): −7.07
2 | CO[C@H]1C[C@@H]2CC[C@@H](C)[C@@](O)(O2)C(=O)C(=O)N2CCCC[C@H]2C(=O)O[C@H]([C@H](C)C[C@@H]2CC[C@@H](O)[C@H](OC)C2)CC(=O)[C@H](C)/C=C(\C)[C@@H](O)[C@@H](OC)C(=O)[C@H](C)C[C@H](C)/C=C/C=C/C=C/1C [Rapamycin] | 9.1 µM | 61% | 34% | 75.5% | 40% | 45% | 44% | 68.5% | 26.5% | 56.5% | 32% | 67% | IC50 ([1]; Homo sapiens): 3.5 µM; half-life at 0.001 mM ([2]; human, liver microsomes, pH 7.4, 0.001 mM, 0.25 mg/mL protein, NADPH, 37° C., read-out: HLM stability: T½ min): 40 min; GI50 (SF295; Homo sapiens, SF-295): 100 nM; GI50 (A498; Homo sapiens): 251 nM
